Reference: article PMC8587515, “Cytotoxic and Anti-Inflammatory Activities of Dihydroisocoumarin and Xanthone Derivatives from Garcinia picrorhiza” (Molecules, 2021)
Read-outs that look alike come from different tables or passages of the source.

Experiments:
[1] = molecular target: T1, COX-1 (purified PGHS-1 from ram seminal vesicles) (Ovis aries, UniProt P05979); assay: COX-1 enzyme inhibition assay (PGE2 ELISA); assay type: biochemical; conditions: mean ± SD (n = 4)
T1 construct: Purified PGHS-1 from ram seminal vesicles for COX-1; purchased Cayman Chemical Co., Ann Arbor, MI, USA; host or cells: ram seminal vesicles (tissue-purified)
T1 sequence (P05979 25-600): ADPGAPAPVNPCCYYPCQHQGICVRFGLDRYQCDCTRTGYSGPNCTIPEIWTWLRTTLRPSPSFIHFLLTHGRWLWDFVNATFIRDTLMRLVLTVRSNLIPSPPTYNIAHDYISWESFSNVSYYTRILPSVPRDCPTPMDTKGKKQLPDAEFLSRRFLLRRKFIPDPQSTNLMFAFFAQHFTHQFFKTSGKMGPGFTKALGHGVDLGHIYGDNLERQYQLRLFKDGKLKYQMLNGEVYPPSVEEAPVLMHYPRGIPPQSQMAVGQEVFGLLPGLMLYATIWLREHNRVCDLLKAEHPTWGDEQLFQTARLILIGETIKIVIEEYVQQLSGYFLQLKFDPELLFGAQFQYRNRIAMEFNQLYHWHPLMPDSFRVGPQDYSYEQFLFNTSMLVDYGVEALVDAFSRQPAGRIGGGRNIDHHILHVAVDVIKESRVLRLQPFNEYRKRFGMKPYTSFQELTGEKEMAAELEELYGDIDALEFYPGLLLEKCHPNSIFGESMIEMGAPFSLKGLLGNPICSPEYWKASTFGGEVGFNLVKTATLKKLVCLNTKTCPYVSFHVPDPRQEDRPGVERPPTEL
Method: (§1) The anti-inflammatory effects of the isolated compounds were also screened on COX-1 and COX-2 enzymes inhibition at a final concentration of 20 µM.
(§2) Purified PGHS-1 from ram seminal vesicles for COX-1 and human recombinant PGHS-2 for COX-2 (Cayman Chemical Co., Ann Arbor, MI, USA) were used for the COX inhibition assays. Experiments were performed in a 96-well plate format, as previously described. Briefly, the incubation mixture contained 180 µL of 0.1 M TRIS/HCl-buffer pH 8.0 (Roth, Karlsruhe, Germany), 50 µM Na2EDTA (only for COX-2, Titriplex III, Merck, Darmstadt, Germany), 18 mM L-epinepherine bitartrate (Fluka, Buchs, Switzerland), 5 µM porcine hematin (MP Biomedicals LLC, Solon, OH, USA), and COX-1 or COX-2 enzymes (0.2 U/well). Ten microliters of tested compounds (dissolved in DMSO with a final concentration of 20 µM) was added and the mixture was pre-incubated for 5 min at room temperature. Thereafter, 10 µL of 5 µM arachidonic acid (Ann Arbor, Michigan USA) was added to the mixture and incubated for 20 min at 37 °C. The reaction was subsequently stopped by adding 10 µL of 10% (v/v) formic acid. The concentration of PGE2 generated in the reaction was quantitatively measured by a competitive PGE2 ELISA kit (Enzo Life Sciences Inc., Farmingdale, NY, USA) according to the manufacturer’s protocol and previous procedure. The absorbance at 405 nm was measured using a Hidex Sense Microplate Reader (Hidex, Turku, Finland). […] The assays were performed in duplicates and repeated in two independent experiments.

[2] = molecular target: T2, COX-2 (human recombinant PGHS-2) (Homo sapiens, UniProt P35354); assay: COX-2 enzyme inhibition assay (PGE2 ELISA); assay type: biochemical; conditions: mean ± SD (n = 4)
T2 construct: purchased Cayman Chemical Co., Ann Arbor, MI, USA
T2 sequence (P35354 18-604): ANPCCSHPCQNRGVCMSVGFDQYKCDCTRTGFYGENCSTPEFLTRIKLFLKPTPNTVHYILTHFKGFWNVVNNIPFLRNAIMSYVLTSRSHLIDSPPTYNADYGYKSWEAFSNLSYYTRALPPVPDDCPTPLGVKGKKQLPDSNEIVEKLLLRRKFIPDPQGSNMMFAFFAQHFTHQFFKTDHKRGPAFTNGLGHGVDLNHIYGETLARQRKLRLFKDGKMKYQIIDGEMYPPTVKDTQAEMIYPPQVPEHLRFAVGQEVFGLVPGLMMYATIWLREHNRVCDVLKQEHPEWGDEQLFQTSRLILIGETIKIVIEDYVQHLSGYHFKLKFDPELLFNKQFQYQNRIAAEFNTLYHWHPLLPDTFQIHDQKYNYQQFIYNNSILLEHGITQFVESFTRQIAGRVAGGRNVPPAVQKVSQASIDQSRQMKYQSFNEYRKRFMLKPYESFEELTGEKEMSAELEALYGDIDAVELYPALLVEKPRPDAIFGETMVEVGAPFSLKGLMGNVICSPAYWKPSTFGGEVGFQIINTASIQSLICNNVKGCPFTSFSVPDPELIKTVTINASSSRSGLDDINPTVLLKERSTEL
Method: as §1, §2

[3] = tested on: HeLa S3 (human cervical carcinoma); parameters: method as in PMID 30153471, PMID 33999337; conditions: MTT; results based on previous work; read-out: IC50 ± SEM, HeLa S3; cited from earlier work
[4] = tested on: Hep G2 (human hepatocellular carcinoma); parameters: method as in PMID 30153471, PMID 33999337; conditions: MTT; results based on previous work; read-out: IC50 ± SEM, Hep G2; cited from earlier work
[5] = tested on: KB (human epidermoid carcinoma); parameters: method as in PMID 30153471, PMID 33999337; conditions: MTT; results based on previous work; read-out: IC50 ± SEM, KB; cited from earlier work
[6] = tested on: HT-29 (human colon adenocarcinoma); parameters: method as in PMID 30153471, PMID 33999337; key to IC50 ± SEM, HT-29: IC50 ≤ 10 µM = good cytotoxicity; 10 µM < IC50 ≤ 30 µM = weak cytotoxicity; inactive (IC50 > 30 µM); conditions: MTT, results based on previous work, cited from earlier work
[7] = tested on: MCF-7 (human breast adenocarcinoma); parameters: method as in PMID 30153471, PMID 33999337; conditions: MTT; results based on previous work; read-out: IC50 ± SEM, MCF-7; cited from earlier work
[8] = tested on: KB (human epidermoid carcinoma); assay: MTT cytotoxic activity assay, KB; assay type: cell-based; conditions: 72 h, mean ± SEM of three replicates
Method: (§3) The cytotoxic activity of the isolated compounds was evaluated using the MTT viability assay with doxorubicin as the positive control and the results are presented in Table 2.
(§4) The MTT colorimetric method was performed to evaluate cytotoxic activity of the isolated compounds against human epidermoid carcinoma (KB; ATCC CCL17), human cervical carcinoma (HeLa S3; ATCC CCL2-2), human colon adenocarcinoma (HT-29; ATCC HTB-38), human breast adenocarcinoma (MCF-7; ATCC HTB-22), and human hepatocellular carcinoma (Hep G2; ATCC HB-8065) cell lines according to the previous method. The cancer cells were cultured in MEM containing 10% fetal bovine serum in the presence of 100 U/mL penicillin and 100 μg/mL streptomycin sulphate (Gibco, Rockville, MD, USA), seeded in a 96-well plate (3000 cells/well), and pre-incubated at 37 °C for 24 h in a 5% CO2 humidified atmosphere. The tested compounds with serial concentrations (0.3–100 μM) were added and incubated for a further 72 h in the same condition. At the end of treatment, 20 µL of MTT solution (5 mg/mL in PBS, Sigma, St. Louis, MI, USA) was added to each well and further incubated for 3 h. After centrifugation at 1400 rpm for 5 min at 4 °C, the supernatant was decanted and DMSO (100 µL/well) was added to allow formazan product solubilization, which was subsequently measured by a microplate reader (Tecan Trading AG, Switzerland) at wavelength 550 nm. Control cells were treated with 0.1% DMSO. Doxorubicin (tested concentrations: 0.01–3.0 μM, Sigma) was used as the positive control. The results are expressed as the mean values of three replicates for three independent experiments. IC50 values were determined by graphical analysis using SigmaPlot 10 (Systat Software Inc., San Jose, CA, USA), obtained by plotting the cell viability percentage versus sample concentration.

[9] = tested on: HeLa S3 (human cervical carcinoma); assay: MTT cytotoxic activity assay, HeLa S3; assay type: cell-based; conditions: 72 h, mean ± SEM of three replicates
Method: as §3, §4

[10] = tested on: NO production in LPS-IFN-γ-induced RAW 264.7 macrophages; assay: NO production inhibition assay (Griess), RAW 264.7; assay type: cell-based, mouse
Method: (§5) Compounds 1–8 were screened for their inhibitory effects on nitric oxide production in LPS-IFN-γ activated RAW 264.7 macrophages and BV-2 microglial cells at a final concentration of 50 µM. […] A deprenylated furanoxanthone structure with ortho hydroxy group in ring B as in 7 might be important to enhance the inhibitory effect when compared to 6 and 8.
(§6) The iNOS inhibitory activity of the isolated compounds and respective cytotoxicity was determined using a previously described protocol. Briefly, BV-2 mouse microglial (25,000 cells/well) and RAW 264.7 mouse macrophage (100,000 cells/well) cell lines were seeded into 96-well plates in high glucose Dulbecco’s Modified Eagle’s Medium (DMEM, Gibco) containing 4 mM L-glutamine, 10% FBS, 2% HEPES, 1% penicillin/streptomycin, and 0.5% amphotericin B. After incubation for 24 h at 37 °C in a 5% CO2 humidified atmosphere, the cells were stimulated with 0.05% LPS (Sigma) and 0.025% interferon-γ (Roche Diagnostics, Mannheim, Germany) and treated with different concentrations (5–100 μM) of the tested compounds. The level of NO production in cell culture supernatants was determined using Griess reagent (Sigma) by photocolorimetric analysis after 16 h of incubation, using a Hidex Sense Microplate Reader (Hidex, Turku, Finland). Fifty microliters of XTT reagent (Sigma, Kit II) was then added into the same plates for cell viability measurement after 60 min incubation. L-NMMA (Alexis, Grünberg, Germany) 100 µM was used as the positive control, while 1% DMSO and digitonin (Roth, Karlsruhe, Germany) 400 µM were used as the vehicle and negative control, respectively. The assays were conducted in triplicates and repeated in two independent experiments. IC50 values were determined by graphical analysis using GraphPad Prism 7 (GraphPad Software, La Jolla, CA, USA).

[11] = Cytotoxicity (XTT cell viability), RAW 264.7; assay type: cell-based; conditions: mouse, RAW 264.7 macrophage cells, LPS/IFN-γ-stimulated, LPS-IFN-γ-induced cells, mean ± SEM (n = 6)
Method: as §5, §6

[12] = Cytotoxicity (XTT cell viability), BV-2; assay type: cell-based; conditions: mouse, BV-2 microglial cells, LPS/IFN-γ-stimulated, LPS-IFN-γ-induced cells, mean ± SEM (n = 6)
Method: as §5, §6

[13] = tested on: NO production in LPS-IFN-γ-induced BV-2 microglial cells; assay: NO production inhibition assay (Griess), BV-2; assay type: cell-based, mouse
Method: as §5, §6

[14] = tested on: four cancer cells (KB, HeLa S3, MCF-7, and Hep G2); conditions: HeLa S3, MCF-7, Hep G2, earlier studies, read-out: IC50 values against four cancer cells; cited from earlier work
[15] = final concentration of 50 µM, preliminary screen

O=c1c2cccc(O)c2oc2ccc(O)c(O)c12 [Compound 9, 1,2,5-trihydroxyxanthone]
inhibition at 20 µM [1]: 22.6 ± 2.2%
inhibition at 20 µM [2]: < 10%

COc1c(O)cc2c(c1O)C(=O)O[C@@H](c1ccccc1O)C2 [Compound 3, 2′-hydroxyannulatomarin]
inhibition at 20 µM [1]: 24.2 ± 12.3%
inhibition at 20 µM [2]: < 10%

C[C@@H]1Oc2cc(O)c3c(=O)c4cccc(O)c4oc3c2C1(C)C [Compound 6, pancixanthone B]
inhibition at 20 µM [1]: 31.2 ± 21.7%
IC50 [3]: 20.7 ± 0.6 µM
IC50 [4]: 22.8 ± 0.4 µM
IC50 [5]: 12.1 ± 0.1 µM
inhibition at 20 µM [2]: < 10%
IC50 ± SEM, HT-29 [6]: inactive
IC50 [7]: 15.6 ± 0.3 µM

COc1c(O)ccc2c(=O)c3c(O)cc(O)cc3oc12 [Compound 13, 1,3,6-trihydroxy-5-methoxyxanthone]
IC50 [8]: 11.4 ± 1.7 µM
IC50 [9]: 15.2 ± 1.3 µM

CC1(C)c2c(cc3oc4ccc(O)c(O)c4c(=O)c3c2O)O[C@@H]1CO [Compound 5, 3′-hydroxycalothorexanthone]
IC50 ([10]; Mus musculus, RAW264.7, LPS-IFN-γ-induced, 16 h, mean ± SEM (n = 6), read-out: IC50, iNOS (inhibition of NO production), RAW 264.7): 16.4 ± 4.5 µM
suppression of NO production, RAW 264.7 [10, 15]: over 70%
IC50 at 16 h [11]: > 200 µM
IC50 at 16 h [12]: 74.7 ± 2.1 µM
IC50 ([13]; Mus musculus, BV-2, LPS-IFN-γ-induced, 16 h, mean ± SEM (n = 6), read-out: IC50, iNOS (inhibition of NO production), BV-2): 13.8 ± 1.6 µM
suppression of NO production, BV-2 [13, 15]: over 70%

[H]/N=C(/NC)NCCC[C@H](N)C(=O)O [L-NMMA, reference compound]
inhibition at 100 µM ([10]; Mus musculus, RAW264.7, at 100 µM, read-out: inhibition of NO production, RAW 264.7 (positive control)): 64.1%
inhibition at 100 µM ([13]; Mus musculus, BV-2, at 100 µM, read-out: inhibition of NO production, BV-2 (positive control)): 44.1%

COc1c(O)cc2c(c1O)C(=O)O[C@@H](c1ccccc1)C2 [Compound 2, (−)-annulatomarin]
inhibition at 20 µM [1]: < 10%
% Inhibition at 20 µM, COX-2 [2]: 10.4 ± 5.0%
inhibition at 20 µM [2]: > 10%

COc1cc(O)c2c(=O)c3ccc(O)c(OC)c3oc2c1 [Compound 14, 1,6-dihydroxy-3,5-dimethoxyxanthone]
inhibition at 20 µM [1]: 18.3 ± 12.1%
inhibition at 20 µM [2]: < 10%

CC(C)=CCc1c2c(c3oc4c(O)c(O)ccc4c(=O)c3c1O)C(C)(C)[C@H](C)O2 [Compound 8, formoxanthone C]
inhibition at 20 µM [1]: 24 ± 15%
IC50 [3]: 0.3 ± 0.1 µM
IC50 [4]: 3.8 ± 0.5 µM
IC50 [5]: 0.2 ± 0.1 µM
IC50 [14]: < 10 µM
inhibition at 20 µM [2]: < 10%
IC50 ([6]; read-out: IC50 ± SEM, HT-29): 21.9 ± 1.2 µM
IC50 [7]: 4.9 ± 0.4 µM
